“Also recorded” adds a separate entry of the source.
biological target: eIF4A (Homo sapiens, UniProt P60842); experiment: RNA-stimulated malachite green ATPase assay; assay type: biochemical; parameters: 6xHis with TEV protease site (N, cleaved yes); made in house; host or cells: E. coli BL21-CodonPlus; conditions: comparison within the series
Description: Human eIF4A protein was produced recombinantly and a greater than 100,000-compound screen for inhibitors was completed using a malachite green ATPase assay (FIG. 11A). […] A stable mixture of yeast RNAs was added in an effort to improve this system and create a more biologically relevant eIF4A assay. eIF4A ATPase activity was accelerated without a statistically significant increase in the background signal in the presence of this RNA (FIG. 11B), and the new conditions gave excellent statistical parameters in a 384-well plate format (FIG. 11C).
ATPase assay. Recombinant WT or mutant eIF4A was added to a clear bottom 384 well plate (Greiner) in ATPase buffer (20 mM Tris pH 7.4, 80 mM KCl, 2.5 mM MgCl2, 1 mM DTT, 1% glycerol). Compounds were added and the plate was incubated at 37° C. for 20 min. ATP/RNA solution was added to afford a 20 μL per well reaction volume with 750 nM eIF4A, 250 μM ATP, and 0.25 mg/mL Yeast RNA (Sigma) for the initial screen and dose responses, and varying concentrations of ATP and RNA for the kinetic assays. The plate was incubated for 4 h at 37° C. for the initial screen and dose responses, and at seven time points (1 hour-7 hours) for kinetic assays. 0.04% v/v (final concentration) Tween-20 was added to a Malachite Green solution, and the Malachite Green (40 μL per well) was added. The solution was incubated for 5 minutes at room temperature and Absorbance at 660 nm was read on a SpectraMax iD5 plate reader (Molecular Devices).

eIF4A, sequence (P60842 whole entry): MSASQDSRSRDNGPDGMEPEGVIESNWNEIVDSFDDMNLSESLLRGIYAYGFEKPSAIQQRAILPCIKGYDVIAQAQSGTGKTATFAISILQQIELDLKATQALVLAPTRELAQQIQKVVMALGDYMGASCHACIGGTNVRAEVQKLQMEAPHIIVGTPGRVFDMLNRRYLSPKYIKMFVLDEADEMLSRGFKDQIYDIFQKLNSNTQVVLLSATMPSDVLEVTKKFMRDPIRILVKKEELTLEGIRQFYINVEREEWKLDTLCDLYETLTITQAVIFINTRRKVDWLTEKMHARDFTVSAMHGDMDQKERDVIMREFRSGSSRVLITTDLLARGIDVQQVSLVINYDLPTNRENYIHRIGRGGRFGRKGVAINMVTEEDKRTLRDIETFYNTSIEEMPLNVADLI

Compound	potency in the eIF4A ATPase assay (in words)
CCCCc1ccc(-c2ccc(-c3cc(C(=O)O)c4ccccc4n3)o2)cc1 [Compound 3, 2-(5-(4-butylphenyl)furan-2-yl)quinoline-4-carboxylic acid]	much less potent than compound 1
CCCCc1ccc(-c2ccc(-c3cc(C(=O)O)c4c(Cl)cccc4n3)o2)cc1 [Compound 4, 2-(5-(4-butylphenyl)furan-2-yl)-5-chloroquinoline-4-carboxylic acid]	large drop in potency
CCCCc1ccc(-c2ccc(-c3cc(C(=O)O)c4cc(Cl)ccc4n3)o2)cc1 [Compound 6, 2-(5-(4-butylphenyl)furan-2-yl)-6-chloroquinoline-4-carboxylic acid]	moderate losses of potency compared to the bromine substituent
CCCCc1ccc(-c2ccc(-c3cc(C(=O)O)c4cc(I)ccc4n3)o2)cc1 [Compound 7, 2-(5-(4-butylphenyl)furan-2-yl)-6-iodoquinoline-4-carboxylic acid]	moderate losses of potency compared to the bromine substituent
CCCCc1ccc(-c2ccc(-c3cc(C(=O)O)c4ccc(F)cc4n3)o2)cc1 [Compound 8, 2-(5-(4-butylphenyl)furan-2-yl)-7-fluoroquinoline-4-carboxylic acid]	moderate potency
CCCCc1ccc(-c2ccc(-c3cc(C(=O)O)c4ccc(Br)cc4n3)o2)cc1 [Compound 10, 7-bromo-2-(5-(4-butylphenyl)furan-2-yl)quinoline-4-carboxylic acid]	moderate potency
CCCCc1ccc(-c2ccc(-c3cc(C(=O)O)c4cccc(Cl)c4n3)o2)cc1 [Compound 11, 2-(5-(4-butylphenyl)furan-2-yl)-8-chloroquinoline-4-carboxylic acid]	less potent than bromine (12)
CCCCc1ccc(-c2ccc(-c3cc(C(=O)O)c4cc(OC)ccc4n3)o2)cc1 [Compound 21, 2-(5-(4-butylphenyl)furan-2-yl)-6-methoxyquinoline-4-carboxylic acid]	much more potent than 7-methoxy (22)
CCCCc1ccc(-c2ccc(-c3cc(C(=O)O)c4ccc(OC)cc4n3)o2)cc1 [Compound 22, 2-(5-(4-butylphenyl)furan-2-yl)-7-methoxyquinoline-4-carboxylic acid]	neither were more potent than earlier molecules in the series
CCCCc1ccc(-c2ccc(-c3cc(C(=O)O)c4cc(OC(F)(F)F)ccc4n3)o2)cc1 [Compound 23, 2-(5-(4-butylphenyl)furan-2-yl)-6-(trifluoromethoxy)quinoline-4-carboxylic acid]	much less potent than compound 21
CCCCc1ccc(-c2ccc(-c3cc(C(=O)O)c4ccc(C(F)(F)F)cc4n3)o2)cc1 [Compound 26, 2-(5-(4-butylphenyl)furan-2-yl)-7-(trifluoromethyl)quinoline-4-carboxylic acid]	performed better in the ATPase assay than molecules with electron-donating substitutions
CCCCc1ccc(-c2ccc(-c3cc(C(=O)O)c4cccc(C(F)(F)F)c4n3)o2)cc1 [Compound 27, 2-(5-(4-butylphenyl)furan-2-yl)-8-(trifluoromethyl)quinoline-4-carboxylic acid]	performed better in the ATPase assay than molecules with electron-donating substitutions; also recorded: about two-fold better than compound 26
CCCCc1ccc(-c2ccc(-c3cc(C(=O)O)c4cccc([N+](=O)[O-])c4n3)o2)cc1 [Compound 30, 2-(5-(4-butylphenyl)furan-2-yl)-8-nitroquinoline-4-carboxylic acid]	over three-fold less potent than compound 28
CCCCc1ccc(-c2ccc(-c3cc(C(=O)O)c4cc([N+](=O)[O-])ccc4n3)s2)cc1 [Compound 31, 2-(5-(4-butylphenyl)thiophen-2-yl)-6-nitroquinoline-4-carboxylic acid]	large drop in potency
CCCCc1ccc(-c2ccc(-c3cc(C(=O)O)c4cc([N+](=O)[O-])ccc4n3)[nH]2)cc1 [Compound 32, 2-(5-(4-butylphenyl)-1H-pyrrol-2-yl)-6-nitroquinoline-4-carboxylic acid]	large drop in potency
CCCCc1ccc(-c2cccc(-c3cc(C(=O)O)c4cc([N+](=O)[O-])ccc4n3)c2)cc1 [Compound 33, 2-(4′-butyl-[1,1′-biphenyl]-3-yl)-6-nitroquinoline-4-carboxylic acid]	drop in potency
CCCCc1ccc(-c2cccc(-c3cc(C(=O)O)c4cc([N+](=O)[O-])ccc4n3)n2)cc1 [Compound 34, 2-(6-(4-butylphenyl)pyridin-2-yl)-6-nitroquinoline-4-carboxylic acid]	drop in potency
CCCCc1ccc(-c2cncc(-c3cc(C(=O)O)c4cc([N+](=O)[O-])ccc4n3)c2)cc1 [Compound 35, 2-(5-(4-butylphenyl)pyridin-3-yl)-6-nitroquinoline-4-carboxylic acid]	lost potency altogether
CCCCc1ccc(-c2ccc(-c3cc(C(=O)O)c4cc([N+](=O)[O-])ccc4n3)cc2)cc1 [Compound 36, 2-(4′-butyl-[1,1′-biphenyl]-4-yl)-6-nitroquinoline-4-carboxylic acid]	much less potent than 28
CCCCc1ccc(-c2ccc(-c3cc(C(=O)O)c4cc([N+](=O)[O-])ccc4n3)cn2)cc1 [Compound 37, 2-(6-(4-butylphenyl)pyridin-3-yl)-6-nitroquinoline-4-carboxylic acid]	much less potent than 28
O=C(O)c1cc(-c2ccc(-c3ccccc3)o2)nc2ccc([N+](=O)[O-])cc12 [Compound 38, 6-nitro-2-(5-phenylfuran-2-yl)quinoline-4-carboxylic acid]	drastic loss in potency
CCCCCc1ccc(-c2ccc(-c3cc(C(=O)O)c4cc([N+](=O)[O-])ccc4n3)o2)cc1 [Compound 40, 6-nitro-2-(5-(4-pentylphenyl)furan-2-yl)quinoline-4-carboxylic acid]	no more potent than 28
CC(C)(C)OC(=O)Nc1cccc(-c2ccc(-c3cc(C(=O)O)c4cc([N+](=O)[O-])ccc4n3)o2)c1 [Compound 44, 2-(5-(3-((tert-butoxycarbonyl)amino)phenyl)furan-2-yl)-6-nitroquinoline-4-carboxyli c acid]	low potency
CC(C)(C)OC(=O)Nc1ccc(-c2ccc(-c3cc(C(=O)O)c4cc([N+](=O)[O-])ccc4n3)o2)cc1 [Compound 45, 2-(5-(4-((tert-butoxycarbonyl)amino)phenyl)furan-2-yl)-6-nitroquinoline-4-carboxylic acid]	low potency
O=C(O)c1cc(-c2ccc(-c3ccc4c(c3)OCO4)o2)nc2ccc([N+](=O)[O-])cc12 [Compound 48, 2-(5-(benzo[d][1,3]dioxol-5-yl)furan-2-yl)-6-nitroquinoline-4-carboxylic acid]	lost all potency
O=C(O)c1cc(-c2ccc(-c3cccc4ccccc34)o2)nc2ccc([N+](=O)[O-])cc12 [Compound 49, 2-(5-(naphthalen-1-yl)furan-2-yl)-6-nitroquinoline-4-carboxylic acid]	about four-fold less potent than compound 28
O=C(O)c1cc(-c2ccc(-c3ccc(-c4ccccc4)cc3)o2)nc2ccc([N+](=O)[O-])cc12 [Compound 50, 2-(5-([1,1′-biphenyl]-4-yl)furan-2-yl)-6-nitroquinoline-4-carboxylic acid]	less potent than compound 28; also recorded: more potent than meta-substituted 51
O=C(O)c1cc(-c2ccc(-c3cccc(-c4ccccc4)c3)o2)nc2ccc([N+](=O)[O-])cc12 [Compound 51, 2-(5-([1,1′-biphenyl]-3-yl)furan-2-yl)-6-nitroquinoline-4-carboxylic acid]	less potent than compound 28

same assay, conditions: relative to compound 1

Compound	fold less potent than compound 1 in the ATPase assay
CCCCc1ccc(-c2ccc(-c3cc(C(=O)OCC)c4cc(Br)ccc4n3)o2)cc1 [Compound 2, ethyl 6-bromo-2-(5-(4-butylphenyl)furan-2-yl)quinoline-4-carboxylate]	about 5 fold

same assay, conditions: relative to compound 28

Compound	fold less potent than 28 in the ATPase assay
CCCc1ccc(-c2ccc(-c3cc(C(=O)O)c4cc([N+](=O)[O-])ccc4n3)o2)cc1 [Compound 39, 6-nitro-2-(5-(4-propylphenyl)furan-2-yl)quinoline-4-carboxylic acid]	about 5 fold

From patent US20240360107A1, “AN EIF4A INHIBITOR WITH A NOVEL MECHANISM OF ACTION” (ARIZONA BOARD OF REGENTS ON BEHALF OF THE UNIVERSITY OF …, priority 2021, published 2024)
